These results are taken from US4550186A, “Binuclear copper (II) carboxylates formed from amine-carboxyboranes” (Duke University, priority 1983, dated 1985).

Read-outs that look alike come from different tables or passages of the source.

One experiment relates to Holtzman male rats. Kind of experiment: Cholesterol absorption study. It counts as in vivo, rat. To be noted: rats treated 14 days, over a 24-hr period. The protocol:
Holtzman male rats (~400 g) were administered the test drug orally for 14 days at 10 mg/kg/day. On day 13, 10 μCi of 1,2-^3 H(N)-cholesterol (40.7 Ci/mmol) was administered to the rat orally. Twenty-four hours later, the blood was collected and the serum separated by centrifugation. Both the serum and the precipitate were counted.

The target in experiment [1] is T1, phosphoribosyl pyrophosphate amidotransferase (Mus musculus, UniProt Q8CIH9). Put plainly: In vitro phosphoribosyl pyrophosphate amidotransferase activity. It counts as biochemical. The settings on record: read-out: ID50, Phosphoribosyl pyrophosphate amidotransferase activity. How it is done: (§1) CF1 male mice (~30 g) were implanted with 2×10^6 Ehrlich ascites tumor cells, intraperitoneally on Day 0. Compound I was suspended by homogenation in 0.05% polysorbate.80-water and administered intraperitoneally at 10 and 20 mg/kg for 9 days to determine its effectiveness for inhibition of tumor growth. Mice were sacrificed on Day 10, and the ascites fluid was collected from the peritoneal cavity. The volume and ascrit (packed cell volume) were determined for each animal and the percent inhibition of tumor growth was calculated. For the metabolic studies, mice were treated on Days 8 and 9 with 10 mg/kg of Compound I, intraperitoneally. […]
(§2) Carbamyl phosphate synthetase activity was determined using the reaction medium of Kalman et al [Am. […] Citrulline formed from ornithine was measured at 490 nm by the method of Archibald [J. Biol. Chem., 156, 121 (1944)]. […] The ^14 CO2 generated in 15 min was trapped in 1M KOH and counted. Thymidylate synthetase activity was determined using a post-mitochondrial supernatant (9000 g×10 min) and 5 μCi of 5-^3 H-deoxyuridine monophosphate (14 Ci/mmol) according to the method of Kampf et al [ J. Med. Chem., 19, 903 (1976)]. ^14 C-Formate incorporation into purines was determined by the method of Spassova et al [Biochem. Pharmacol., 25, 923 (1976)] using 0.5 μCi of ^14 C-formic acid (52.0 mCi/mmol). […] The Rf value for xanthine monophosphate was scraped and counted. […]

Experiment [2] addresses T2, messenger ribonucleic acid polymerase (Mus musculus, UniProt P08775+Q8CFI7).
T2 construct: enzymes isolated from nuclei; endogenous in cells; host or cells: Ehrlich ascites tumor cell nuclei, ammonium sulfate fraction
Kind of experiment: In vivo messenger ribonucleic acid polymerase activity. The protocol: (§3) CF1 male mice (~30 g) were implanted with 2×10^6 Ehrlich ascites tumor cells, intraperitoneally on Day 0. Compound I was suspended by homogenation in 0.05% polysorbate.80-water and administered intraperitoneally at 10 and 20 mg/kg for 9 days to determine its effectiveness for inhibition of tumor growth. Mice were sacrificed on Day 10, and the ascites fluid was collected from the peritoneal cavity. The volume and ascrit (packed cell volume) were determined for each animal and the percent inhibition of tumor growth was calculated. For the metabolic studies, mice were treated on Days 8 and 9 with 10 mg/kg of Compound I, intraperitoneally. The animal was sacrificed on Day 10 and the ascites fluid harvested. The in vitro metabolic studies were performed at […] final concentration of Compound I.
(§4) In vitro and in vivo nuclear deoxyribonucleic acid polymerase activity was determined on isolated Ehrlich ascites cell nuclei. The incubation was that described by Sawada et al [Can. Res., 34, 3341 (1974)] except that [methyl-^3 H] deoxythymidine triphosphate (82.4 Ci/mmol) was used. The acid insoluble nucleic acid was collected on GF/F filters and counted. Nuclear ribonucleic acid polymerase activities were determined on enzymes isolated from nuclei. […] The acid insoluble ribonucleic acid was collected on nitrocellulose filters and counted.

The next experiment in a line: Appetite / food intake. The settings on record: in vivo.
Experiment [3] concerns CF1 male mice on atherogenic diet. Put plainly: Testing in atherogenic mice. To be noted: 12 days. The class given is in vivo, mouse. How it is done: CF1 male mice (~25 g) were placed on a commercial diet (the U.S. Biochemical Corporation Basel Atherogenic Test Diet) which contained butterfat (400 g), celufil (cellulose; 60 g), cholesterol (53 g), choline dihydrogen citrate (4 g), salt mixture oil (Wesson; 40 g), sodium cholate (20 g), sucrose (223 g), vitamin free casein (200 g) and total vitamin supplement for 10 days. After the cholesterol and triglyceride levels were assayed and observed to be elevated, the mice were administered test drugs at 10 mg/kg/day intraperitoneally for an additional 12-day period. Serum cholesterol and triglyceride levels were measured after 12 days of administration of the drugs.

A further experiment relates to Ehrlich ascites cells. Put plainly: Number of cells in ascites fluid. It counts as in vivo, mouse. The protocol:
as §3

For experiment [4], the target named is T3, orotidine monophosphate decarboxylase (Mus musculus, UniProt P13439).
T3 construct: OMP decarboxylase domain of UMP synthase
Put plainly: In vivo orotidine monophosphate decarboxylase activity. How it is done:
as §1, §2

Experiment [5] has as its target T1, phosphoribosyl pyrophosphate amidotransferase. Put plainly: In vivo phosphoribosyl pyrophosphate amidotransferase activity. How it is done:
as §1, §2

Experiment [6] concerns the target T4, ribosomal ribonucleic acid polymerase (Mus musculus, UniProt O35134+P70700).
T4 construct: enzymes isolated from nuclei; endogenous in cells; host or cells: Ehrlich ascites tumor cell nuclei, ammonium sulfate fraction
Put plainly: In vivo ribosomal ribonucleic acid polymerase activity. The protocol: as §3, §4

Setting [7] is: 10 mg/kg/day I.P. on Days 8 and 9.

T1 sequence (Q8CIH9 12-517): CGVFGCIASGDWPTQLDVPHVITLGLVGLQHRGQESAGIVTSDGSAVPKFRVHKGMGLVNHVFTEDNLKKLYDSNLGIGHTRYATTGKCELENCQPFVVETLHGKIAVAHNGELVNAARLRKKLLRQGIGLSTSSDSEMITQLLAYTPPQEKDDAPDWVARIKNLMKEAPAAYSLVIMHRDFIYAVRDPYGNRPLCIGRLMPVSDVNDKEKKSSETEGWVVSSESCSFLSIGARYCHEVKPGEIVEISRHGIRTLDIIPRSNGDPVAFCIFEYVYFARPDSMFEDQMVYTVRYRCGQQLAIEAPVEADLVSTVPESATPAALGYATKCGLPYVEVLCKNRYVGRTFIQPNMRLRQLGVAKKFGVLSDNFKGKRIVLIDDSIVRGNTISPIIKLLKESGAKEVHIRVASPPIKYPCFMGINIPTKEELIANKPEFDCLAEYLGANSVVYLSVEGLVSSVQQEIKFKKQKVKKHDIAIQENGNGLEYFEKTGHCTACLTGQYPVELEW
T3 sequence (P13439 whole entry, the tested form may be a part): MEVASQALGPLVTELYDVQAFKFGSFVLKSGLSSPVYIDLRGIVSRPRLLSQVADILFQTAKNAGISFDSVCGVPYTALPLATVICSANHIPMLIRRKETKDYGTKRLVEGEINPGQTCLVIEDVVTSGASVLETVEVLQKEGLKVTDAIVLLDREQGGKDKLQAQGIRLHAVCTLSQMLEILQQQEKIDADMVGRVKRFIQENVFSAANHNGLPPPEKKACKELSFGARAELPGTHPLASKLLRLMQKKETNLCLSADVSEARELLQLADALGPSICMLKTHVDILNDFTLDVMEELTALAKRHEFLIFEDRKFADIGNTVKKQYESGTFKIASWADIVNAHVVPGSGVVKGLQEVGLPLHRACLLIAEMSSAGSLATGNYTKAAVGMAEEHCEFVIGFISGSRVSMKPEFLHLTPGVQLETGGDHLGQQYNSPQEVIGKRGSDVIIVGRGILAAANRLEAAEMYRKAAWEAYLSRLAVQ
T4 sequence (P52432 whole entry): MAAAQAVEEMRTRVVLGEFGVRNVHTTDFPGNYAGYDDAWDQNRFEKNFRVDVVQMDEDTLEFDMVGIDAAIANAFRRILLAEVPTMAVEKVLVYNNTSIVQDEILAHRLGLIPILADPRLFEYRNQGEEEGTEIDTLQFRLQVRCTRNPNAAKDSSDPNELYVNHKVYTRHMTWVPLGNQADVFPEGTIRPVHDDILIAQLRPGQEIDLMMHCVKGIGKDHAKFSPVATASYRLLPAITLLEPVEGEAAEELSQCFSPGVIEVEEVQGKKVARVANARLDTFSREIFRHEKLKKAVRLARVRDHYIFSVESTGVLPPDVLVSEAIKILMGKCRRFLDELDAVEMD
T4 sequence (Q791N7 whole entry, further chain): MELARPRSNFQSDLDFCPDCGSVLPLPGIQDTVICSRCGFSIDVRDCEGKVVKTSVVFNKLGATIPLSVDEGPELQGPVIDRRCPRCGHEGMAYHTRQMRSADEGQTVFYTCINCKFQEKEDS
T4 sequence (P97304 whole entry, further chain): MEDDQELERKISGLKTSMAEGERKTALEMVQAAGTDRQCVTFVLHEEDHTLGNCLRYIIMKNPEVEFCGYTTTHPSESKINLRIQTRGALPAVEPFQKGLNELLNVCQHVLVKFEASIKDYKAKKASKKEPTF
T4 sequence (Q78WZ7 whole entry, further chain): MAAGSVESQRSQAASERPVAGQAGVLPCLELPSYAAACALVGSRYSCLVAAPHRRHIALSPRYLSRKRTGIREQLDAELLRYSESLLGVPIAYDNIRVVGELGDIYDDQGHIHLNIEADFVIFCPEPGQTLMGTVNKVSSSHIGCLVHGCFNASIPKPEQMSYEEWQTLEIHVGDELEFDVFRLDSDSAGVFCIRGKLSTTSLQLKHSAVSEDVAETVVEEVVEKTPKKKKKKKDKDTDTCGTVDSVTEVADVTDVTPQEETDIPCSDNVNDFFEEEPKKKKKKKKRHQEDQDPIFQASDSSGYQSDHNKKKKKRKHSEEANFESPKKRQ
T4 sequence (P70700 whole entry): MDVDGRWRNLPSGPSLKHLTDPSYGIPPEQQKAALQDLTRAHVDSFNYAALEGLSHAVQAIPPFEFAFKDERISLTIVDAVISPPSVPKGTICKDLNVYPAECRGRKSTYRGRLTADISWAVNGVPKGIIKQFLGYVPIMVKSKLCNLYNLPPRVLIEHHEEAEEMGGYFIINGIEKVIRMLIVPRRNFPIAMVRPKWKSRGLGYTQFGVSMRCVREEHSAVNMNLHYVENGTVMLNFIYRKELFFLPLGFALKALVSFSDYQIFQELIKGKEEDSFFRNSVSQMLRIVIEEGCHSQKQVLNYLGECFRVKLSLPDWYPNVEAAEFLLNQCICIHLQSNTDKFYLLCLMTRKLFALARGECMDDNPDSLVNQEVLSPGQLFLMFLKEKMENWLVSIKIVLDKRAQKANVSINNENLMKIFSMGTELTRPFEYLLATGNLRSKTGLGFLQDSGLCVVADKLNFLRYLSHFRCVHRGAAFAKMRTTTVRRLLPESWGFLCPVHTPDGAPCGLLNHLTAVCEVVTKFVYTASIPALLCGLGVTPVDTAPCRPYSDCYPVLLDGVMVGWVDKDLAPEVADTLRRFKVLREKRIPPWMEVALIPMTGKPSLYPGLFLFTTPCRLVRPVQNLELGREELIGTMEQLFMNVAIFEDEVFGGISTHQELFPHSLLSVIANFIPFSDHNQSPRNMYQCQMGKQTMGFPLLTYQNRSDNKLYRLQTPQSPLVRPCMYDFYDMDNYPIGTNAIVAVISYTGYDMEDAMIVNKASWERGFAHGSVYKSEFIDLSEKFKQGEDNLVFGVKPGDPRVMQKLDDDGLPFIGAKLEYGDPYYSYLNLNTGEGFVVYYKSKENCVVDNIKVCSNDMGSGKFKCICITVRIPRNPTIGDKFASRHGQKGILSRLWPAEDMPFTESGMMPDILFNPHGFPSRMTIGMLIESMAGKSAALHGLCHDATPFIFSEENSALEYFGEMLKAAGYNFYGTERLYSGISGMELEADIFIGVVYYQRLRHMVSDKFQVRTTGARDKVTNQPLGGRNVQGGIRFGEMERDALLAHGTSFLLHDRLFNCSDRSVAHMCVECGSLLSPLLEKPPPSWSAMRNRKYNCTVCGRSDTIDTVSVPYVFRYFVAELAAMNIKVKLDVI
T4 sequence (O35134 whole entry): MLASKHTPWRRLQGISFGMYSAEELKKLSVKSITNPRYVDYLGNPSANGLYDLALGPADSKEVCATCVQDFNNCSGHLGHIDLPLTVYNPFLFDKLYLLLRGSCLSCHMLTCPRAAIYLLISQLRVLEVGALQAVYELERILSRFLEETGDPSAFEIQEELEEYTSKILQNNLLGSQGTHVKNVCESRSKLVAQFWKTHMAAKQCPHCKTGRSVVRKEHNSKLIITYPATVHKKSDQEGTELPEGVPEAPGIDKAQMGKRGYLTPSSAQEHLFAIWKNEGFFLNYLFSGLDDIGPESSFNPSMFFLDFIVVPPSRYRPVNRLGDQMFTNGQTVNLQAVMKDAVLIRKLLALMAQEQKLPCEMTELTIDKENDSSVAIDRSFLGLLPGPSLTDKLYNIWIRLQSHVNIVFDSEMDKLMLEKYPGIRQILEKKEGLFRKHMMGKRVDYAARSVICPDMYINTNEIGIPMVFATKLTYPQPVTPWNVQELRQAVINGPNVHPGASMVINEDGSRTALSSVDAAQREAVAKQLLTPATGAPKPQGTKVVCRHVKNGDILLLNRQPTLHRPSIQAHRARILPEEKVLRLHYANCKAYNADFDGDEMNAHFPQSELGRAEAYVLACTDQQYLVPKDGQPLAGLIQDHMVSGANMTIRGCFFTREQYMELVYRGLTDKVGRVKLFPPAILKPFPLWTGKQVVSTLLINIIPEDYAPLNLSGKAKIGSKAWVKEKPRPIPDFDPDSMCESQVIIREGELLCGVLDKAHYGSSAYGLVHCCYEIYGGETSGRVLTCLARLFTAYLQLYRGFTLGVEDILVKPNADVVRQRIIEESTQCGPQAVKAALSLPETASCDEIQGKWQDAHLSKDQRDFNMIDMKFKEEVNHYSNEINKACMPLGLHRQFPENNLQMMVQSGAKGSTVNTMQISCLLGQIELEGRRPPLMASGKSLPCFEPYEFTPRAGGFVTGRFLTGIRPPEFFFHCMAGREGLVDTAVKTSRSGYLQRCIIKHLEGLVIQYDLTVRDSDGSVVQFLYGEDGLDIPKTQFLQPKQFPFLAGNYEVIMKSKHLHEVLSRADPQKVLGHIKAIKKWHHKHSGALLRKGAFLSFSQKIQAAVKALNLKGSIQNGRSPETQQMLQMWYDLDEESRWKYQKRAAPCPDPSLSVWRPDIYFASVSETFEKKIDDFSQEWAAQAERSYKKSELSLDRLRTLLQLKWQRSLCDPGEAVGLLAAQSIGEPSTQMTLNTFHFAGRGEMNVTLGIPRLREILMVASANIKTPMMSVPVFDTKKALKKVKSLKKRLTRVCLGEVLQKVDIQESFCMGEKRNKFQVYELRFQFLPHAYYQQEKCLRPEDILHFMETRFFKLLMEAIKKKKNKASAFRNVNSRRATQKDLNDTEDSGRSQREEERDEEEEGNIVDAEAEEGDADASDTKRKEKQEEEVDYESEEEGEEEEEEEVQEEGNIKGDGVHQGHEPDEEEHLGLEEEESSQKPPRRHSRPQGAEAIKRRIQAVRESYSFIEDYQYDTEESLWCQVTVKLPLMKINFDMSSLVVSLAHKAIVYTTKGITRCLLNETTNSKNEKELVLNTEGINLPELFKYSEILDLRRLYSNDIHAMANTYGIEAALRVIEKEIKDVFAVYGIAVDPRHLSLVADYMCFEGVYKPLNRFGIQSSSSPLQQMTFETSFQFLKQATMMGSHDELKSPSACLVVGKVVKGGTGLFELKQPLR

As for “{Cu[(CH3)3 N.BH2 CO2 ]2.(CH3)3 N.BH2 COOH} [Compound I]”, the “adsorption of orally administered 3H-cholesterol reduced” value in the experiment with Holtzman male rats came to 85%. Moreover, the IC50 in [1] was determined as 523 µM. Further, the “Messenger ribonucleic acid polymerase activity” value was “not affected” in [2] and 96 ± 9 % Control in experiment [2] (setting [7]). Besides, the “Appetite of the animal” value in “Appetite / food intake” is recorded as “reduced”. The “serum cholesterol level after drug administration” value in [3] (hyperlipidemic induced mice (354 mg % before)) was determined as 148 mg %. In addition, the “serum cholesterol levels reduced” value in [3] (hyperlipidemic induced mice, 10 mg/kg/day i.p.) is given as 59%. Also, the “serum triglyceride levels lowered” value in experiment [3] (hyperlipidemic mice, 10 mg/kg/day i.p.) is on record as 67%. Also, the “number of cells in the ascites fluid” value in the experiment with Ehrlich ascites cells (after drug administration for two days (control 226×10^6 /ml)) amounted to 1.02e+08 mL⁻¹. In the experiment with Ehrlich ascites cells (in vivo, 10 mg/kg/day I.P. on Days 8 and 9), the “Number of cells × 10^6 /ml ascites fluid” value worked out at 45 ± 4 % Control. Further, the “Orotidine monophosphate decarboxylase activity” value in [4] is recorded as “not affected”; in experiment [4] (setting [7]), 106 ± 9 % Control. In addition, the “Phosphoribosyl pyrophosphate amidotransferase activity” value in [5] (setting [7]) turned out to be 41 ± 3 % Control. Besides, the “Phosphoribosyl pyrophosphate amido transferase activity reduced” value in experiment [5] (drug administration for 2 days) amounted to 59%. Further, in [6], the “ribosomal ribonucleic acid polymerase activity” value is listed as “not affected”. Also, the “Ribosmoal ribonucleic acid polymerase activity” value in [6] (setting [7]) turned out to be 96 ± 11 % Control.
